# Tested on: Human keratinocytes (HatKat)
# Assay: Growth of keratinocytes, cell count in Coulter counter after three days
# Format: cell-based
# Details: 10 ng/ml EGF versus medium with 0.5% FCS
# Procedure: Human keratinocytes (HatKat) were grown in keratinocyte growth medium (TCS Cellworks Ltd.) until 20% confluence. Then, in the same medium, the keratinocytes were grown for three days with 0.5% foetal calf serum (FCS), at which point the cells were counted in a Coulter® counter. The cell numbers obtained are set out in Table 3 below.
substance,measurement,value
"epidermal growth factor (NSDSECPLSHDGYCLHDGVCMYIEALDKYACNCVVGYIGERCQYRDLKWWELR; UniProt P01133 971-1023, looked up) [EGF, epidermal growth factor, comparison growth factor at 10 ng/ml]",increase in the growth of keratinocytes (in words),relatively modest increase

# Source: US7579315B2, “Casein peptides for alleviating or preventing aging of skin” (Pepsyn Ltd., priority 2000, dated 2009)
